These are literature values, as cited in patent US20260024626A1, “TOXICITY […], OPERATION METHOD OF TOXICITY […], AND OPERATION PROGRAM OF TOXICITY […]” (FUJIFILM Corporation, priority 2023, published 2026).

For series [1] the following is noted: actual test outcome, as against the positive outcome expected from the assumed metabolic reaction.
The mark [2] stands for this setting: With metabolic activation (rat liver extract and coenzyme added).
Where [3] appears, read: Without metabolic activation (no rat liver extract and coenzyme).

Like-named read-outs stand apart in the source and are kept apart here.

Regarding monomethylnitrobenzene, the “determination in the in vitro toxicity evaluation test” value in series [1] is reported as “negative determination”.
In the case of `Nc1ccccc1O` [compound A], the “Ames test result (toxicity), WP2uvrA, Covalent bonding to DNA” value (“Ames test result (toxicity), WP2uvrA” for short) in the series with WP2uvrA (setting [2]) and in the series with WP2uvrA (setting [3]) was “No” in each case. In addition, the “Ames test result (toxicity), TA100, Covalent bonding to DNA” value (shortened to “Ames test result (toxicity), TA100”) in the series on TA100 (setting [2]) is “Toxic”; in the series with TA100 (setting [3]), “No”. Further, the “Ames test result (toxicity), TA98, Intercalation between base pairs” value (from here on “Ames test result (toxicity), TA98”) in the series on TA98 (setting [2]) and with TA98 (setting [3]) was “No” each time. The “Ames test result (toxicity), TA1537, Intercalation between base pairs” value (from here on “Ames test result (toxicity), TA1537”) in the series on TA1537 (setting [2]) and with TA1537 (setting [3]) was “No” each time. Besides, the “Ames test result (toxicity), TA1535, Covalent bonding to DNA” value (“Ames test result (toxicity), TA1535” below) in the series with TA1535 (setting [2]) and in the series with TA1535 (setting [3]) was “No” each time.
Take `Nc1ccccc1-c1ccccc1` [compound B]: the “Ames test result (toxicity), WP2uvrA” value with WP2uvrA (setting [2]) and in the series with WP2uvrA (setting [3]) was “No” throughout. Moreover, the “Ames test result (toxicity), TA100” value is “Toxic” with TA100 (setting [2]) and “No” in the series with TA100 (setting [3]). Further, the “Ames test result (toxicity), TA98” value in the series on TA98 (setting [2]) and with TA98 (setting [3]) was “No” each time. In addition, the “Ames test result (toxicity), TA1537” value in the series on TA1537 (setting [2]) and in the series on TA1537 (setting [3]) was “No” throughout. In addition, the “Ames test result (toxicity), TA1535” value in the series on TA1535 (setting [2]) and in the series on TA1535 (setting [3]) was “No” in each case.
As to `Nc1ccccc1Cl` [compound C], the “Ames test result (toxicity), WP2uvrA” value with WP2uvrA (setting [2]) and in the series on WP2uvrA (setting [3]) was “No” throughout. The “Ames test result (toxicity), TA100” value with TA100 (setting [2]) and in the series with TA100 (setting [3]) was “No” each time. Besides, the “Ames test result (toxicity), TA98” value with TA98 (setting [2]) and with TA98 (setting [3]) was “No” in each case. The “Ames test result (toxicity), TA1537” value with TA1537 (setting [2]) and in the series on TA1537 (setting [3]) was “No” throughout. Also, the “Ames test result (toxicity), TA1535” value in the series on TA1535 (setting [2]) and in the series on TA1535 (setting [3]) was “No” each time.
